Measured values from patent publication US8815833B2, “Stable amifostine liquid concentrate” (Seidose, LLC, priority 2006, dated 2014).
Marks after values point to notes of the source that are not given here.

Assay: Storage stability of amifostine solutions by stability indicating HPLC method (% remaining)
Type: physicochemical
Protocol: As will be seen below in Example 1, a 250 mg/ml liquid concentrate was prepared at pH 9, and 200 mg/ml liquid concentrates were prepared at pH 10.5, 11.5, 12.5 and 13. The stability was monitored at 40° C., 25° C. and 5° C. by a stability indicating HPLC method using the following HPLC conditions:
Solutions of amifostine at 200 mg/ml or 250 mg/ml were prepared at the pHs shown in the table below and stored at the temperatures indicated for the times indicated. “% remaining” in the table below is determined by the HPLC method described earlier in the specification.

Question: Which potency loss (5° C., 180-day storage, pH 12.5 and 13 formulations) does the source give for `NCCCNCCSP(=O)(O)O` [amifostine, S-2(3-Aminoprpropylamino)ethylphosphorthioic acid] here?
Answer: Its potency loss is at most 3%.

Question: What about the “% remaining” value (pH 7.4, 200 mg/ml, 25° C., 7 days) of the same molecule?
Answer: Its value is 89%.

Question: And the “% remaining” value (pH 7.4, 200 mg/ml, 25° C., 14 days)?
Answer: Its value is 78%.

Question: And the “% remaining” value (pH 7.4, 200 mg/ml, 25° C., 25 days)?
Answer: Its value is 60%.

Question: What about the “% remaining” value (pH 7.4, 200 mg/ml, 25° C., 33 days) of the same molecule?
Answer: Its value is 52%.

Question: What about the “% remaining” value (pH 7.4, 200 mg/ml, 40° C., 2 days) of the same molecule?
Answer: The value was 71%.

Question: What about the “% remaining” value (pH 7.4, 250 mg/ml, 40° C., 1 day) of the same molecule?
Answer: The value was 84%.

Question: And the “% remaining” value (pH 7.4, 250 mg/ml, 40° C., 2 days)?
Answer: The value was 66%.

Question: And the “% remaining” value (pH 7.4, 250 mg/ml, 40° C., 3 days)?
Answer: Its value is 57%.

Question: What about the “% remaining” value (pH 9.0, 250 mg/ml, 5° C., 90 days) of the same molecule?
Answer: Its value is 96%.

Question: What about the “% remaining” value (pH 9.0, 250 mg/ml, 5° C., 180 days) of the same molecule?
Answer: Its value is 91* %.

Question: And the “% remaining” value (pH 9.0, 250 mg/ml, 25° C., 10 days)?
Answer: Its value is 83%.

Question: And the “% remaining” value (pH 9.0, 250 mg/ml, 25° C., 25 days)?
Answer: Its value is 60%.

Question: And the “% remaining” value (pH 9.0, 250 mg/ml, 40° C., 1 day)?
Answer: Its value is 83%.

Question: And the “% remaining” value (pH 10.5, 200 mg/ml, 5° C., 90 days)?
Answer: The value was 94%.

Question: And the “% remaining” value (pH 10.5, 200 mg/ml, 5° C., 180 days)?
Answer: The value was 90%.

Question: And the “% remaining” value (pH 10.5, 200 mg/ml, 25° C., 10 days)?
Answer: The value was 85%.

Question: What about the “% remaining” value (pH 10.5, 200 mg/ml, 25° C., 25 days) of the same molecule?
Answer: The value was 62%.

Question: And the “% remaining” value (pH 10.5, 200 mg/ml, 25° C., 35 days)?
Answer: The value was 57%.

Question: And the “% remaining” value (pH 10.5, 200 mg/ml, 25° C., 60 days)?
Answer: The value was 39%.

Question: What about the “% remaining” value (pH 10.5, 200 mg/ml, 40° C., 1 day) of the same molecule?
Answer: The value was 84%.

Question: And the “% remaining” value (pH 10.5, 200 mg/ml, 40° C., 2 days)?
Answer: Its value is 75%.

Question: And the “% remaining” value (pH 11.5, 200 mg/ml, 5° C., 90 days)?
Answer: The value was 93%.

Question: And the “% remaining” value (pH 11.5, 200 mg/ml, 5° C., 180 days)?
Answer: The value was 92%.

Question: And the “% remaining” value (pH 11.5, 200 mg/ml, 25° C., 10 days)?
Answer: The value was 86%.

Question: And the “% remaining” value (pH 11.5, 200 mg/ml, 25° C., 25 days)?
Answer: Its value is 64%.

Question: And the “% remaining” value (pH 11.5, 200 mg/ml, 25° C., 60 days)?
Answer: The value was 51%.

Question: And the “% remaining” value (pH 11.5, 200 mg/ml, 40° C., 1 day)?
Answer: The value was 90%.

Question: What about the “% remaining” value (pH 12.5, 200 mg/ml, 5° C., 90 days) of the same molecule?
Answer: Its value is 99%.

Question: What about the “% remaining” value (pH 12.5, 200 mg/ml, 5° C., 180 days) of the same molecule?
Answer: The value was 97%.

Question: And the “% remaining” value (pH 12.5, 200 mg/ml, 25° C., 10 days)?
Answer: The value was 94%.

Question: What about the “% remaining” value (pH 12.5, 200 mg/ml, 25° C., 32 days) of the same molecule?
Answer: Its value is 86%.

Question: And the “% remaining” value (pH 12.5, 200 mg/ml, 25° C., 60 days)?
Answer: The value was 74%.

Question: And the “% remaining” value (pH 12.5, 200 mg/ml, 40° C., 4 days)?
Answer: The value was 77%.

Question: What about the “% remaining” value (pH 13.0, Batch #1, 200 mg/ml, 5° C., 90 days) of the same molecule?
Answer: The value was 99%.

Question: What about the “% remaining” value (pH 13.0, Batch #1, 200 mg/ml, 5° C., 180 days) of the same molecule?
Answer: The value was 98%.

Question: And the “% remaining” value (pH 13.0, Batch #1, 200 mg/ml, 5° C., 270 days)?
Answer: The value was 95%.

Question: What about the “% remaining” value (pH 13.0, Batch #1, 200 mg/ml, 25° C., 18 days) of the same molecule?
Answer: Its value is 96%.

Question: And the “% remaining” value (pH 13.0, Batch #1, 200 mg/ml, 25° C., 36 days)?
Answer: Its value is 82%.

Question: And the “% remaining” value (pH 13.0, Batch #1, 200 mg/ml, 25° C., 60 days)?
Answer: The value was 74%.

Question: What about the “% remaining” value (pH 13.0, Batch #1, 200 mg/ml, 40° C., 4 days) of the same molecule?
Answer: Its value is 85-86%.

Question: What about the “% remaining” value (pH 13.0, Batch#2, 200 mg/ml, 5° C., 90 days) of the same molecule?
Answer: Its value is 100%.

Question: What about the “% remaining” value (pH 13.0, Batch#2, 200 mg/ml, 5° C., 180 days) of the same molecule?
Answer: The value was 97%.

Question: And the “% remaining” value (pH 13.0, Batch#2, 200 mg/ml, 5° C., 270 days)?
Answer: The value was 95%.

Question: And the “% remaining” value (pH 13.0, Batch#2, 200 mg/ml, 25° C., 18 days)?
Answer: The value was 96%.

Question: What about the “% remaining” value (pH 13.0, Batch#2, 200 mg/ml, 25° C., 36 days) of the same molecule?
Answer: The value was 82%.

Question: And the “% remaining” value (pH 13.0, Batch#2, 200 mg/ml, 25° C., 90 days)?
Answer: The value was 75%.

Question: What about the “% remaining” value (pH 13.0, batch #3, 200 mg/ml, 5° C., 90 days) of the same molecule?
Answer: The value was 101%.

Question: What about the “% remaining” value (pH 13.0, batch #3, 200 mg/ml, 5° C., 180 days) of the same molecule?
Answer: Its value is 97%.

Question: What about the “% remaining” value (pH 13.0, batch #3, 200 mg/ml, 5° C., 270 days) of the same molecule?
Answer: Its value is 95%.

Question: What about the “% remaining” value (pH 13.0, batch #3, 200 mg/ml, 25° C., 18 days) of the same molecule?
Answer: Its value is 97%.

Question: What about the “% remaining” value (pH 13.0, batch #3, 200 mg/ml, 25° C., 36 days) of the same molecule?
Answer: The value was 82%.

Question: What about the “% remaining” value (pH 13.0, batch #3, 200 mg/ml, 25° C., 90 days) of the same molecule?
Answer: The value was 76%.
